Experimental data as given in patent US20240181081A1, “Compositions and Methods for Treatment of Myotonic Dystrophy Type 1 with CRISPR/SACAS9” (Vertex Pharmaceuticals Incorporated, priority 2021, published 2024).

Columns and labels:
[1] = tested on: CTG repeat expansion in the 3′ UTR of human DMPK gene; experiment: DOUBLE-cut screening: CTG repeat excision by loss-of-signal ddPCR in primary DM1 patient myoblasts; assay type: cell-based; conditions: sgRNA pair RNP, mean of upstream and downstream ddPCR assays; for % of CTG repeat excision efficiency by ddPCR (DNA-PKi): 3 μM Compound 6 for 48 hrs; for % of CTG repeat excision efficiency by ddPCR (Vehicle): DMSO 48 hrs
Protocol: (§1) RNPs were assembled with recombinant SaCas9 protein (Aldevron) and chemically modified sgRNAs (Synthego) at a ratio of 1:3 (protein:sgRNA). For SINGLE-cut screening, RNP complexes were assembled with 30 pmol of SaCas9 and 90 pmol of sgRNA in P5 Primary Cell Nucleofector Solution (Lonza). After incubation at room temperature for 20 minutes, 10 μL of RNP complex was mixed with two hundred thousand primary myoblasts resuspended in 10 μL of P5 Nucleofector Solution. For DOUBLE-cut screening, RNP complexes were first assembled for individual sgRNAs with 20 pmol of SaCas9 protein and 60 pmol of sgRNAs in 5 μL of P5 Nucleofector Solution. After incubation at room temperature for 20 minutes, the two RNP complexes (one for upstream sgRNA and one for downstream sgRNA) were mixed at 1:1 ratio and then further mixed with two hundred thousand primary myoblasts resuspended in 10 μL of P5 Nucleofector Solution.
(§2) The Nucleofector 96-well Shuttle System (Lonza) was used to deliver the SaCa9/sgRNA RNPs into primary DM1 patient myoblasts using the nucleofection program CM138. Following nucleofection, myoblasts from each well of nucleofection shuttle were split into six wells of the 96-well cell culture plate (Greiner, 655090) coated with matrigel. The first three wells were treated with DMSO for 48 hrs before changing to fresh myoblast growth medium, and the other three wells were treated with 3 μM of DNA-PKi Compound 6 for 48 hrs before changing to fresh myoblast growth medium. 72 hrs post nucleofection, two wells of DMSO-treated myoblasts and two wells of DNA-PKi-treated myoblasts from each nucleofection were harvested for genomic DNA extraction using the Kingfisher Flex purification system (Thermal Fisher), whereas one well of DMSO-treated myoblasts and one well of DNA-PKi-treated myoblasts were stained for RNA foci by FISH staining.
The primers and probes of ddPCR were designed using the online primer design software Primer3Plus (http://www.bioinformatics.nl/cgi-bin/primer3plus/primer3plus.cgi). The two Target primers/probe sets were used to detect CTG repeat excision, and the Reference primers/probe set was used to amplify a region located in Exon 1 of human DMPK gene and it served as a reference control for the Target sets. The 24 μL of ddPCR reaction consisted of 12 μL of Supermix for Probes (no dUTP) (Bio-Rad Laboratories), 1 μL of Reference primers mix (21.6 μM), 1 μL of Reference probe (6 μM), 1 μL of Target primers mix (21.6 μM), 1 μL of Target probe (6 μM), and 8 μL of sample genomic DNA. Droplets were generated using probe oil with the QX200 Droplet Generator (Bio-Rad Laboratories). Droplets were transferred to a 96-well PCR plate, sealed and cycled in a C1000 deep well Thermocycler (Bio-Rad Laboratories) under the following cycling protocol: 1 cycle at 95° C. for 10 min; 40 cycles of 94° C. for 30 sec, and 58° C. for 1 min; 1 cycle at 98° C. for 10 min (for enzyme inactivation). The cycled plate was then transferred and read in the FAM and HEX channels using the Bio-Rad QX200 Droplet Reader (Bio-Rad Laboratories). ddPCR analysis was performed with the Bio-Rad QuantaSoft Pro Software.
Next, DOUBLE-cut screening was performed to assess the efficiency of paired sgRNAs-induced CTG repeat excision and RNA foci reduction. 90 SaCas9 sgRNA pairs formed by one upstream sgRNA and one downstream sgRNA were assembled with recombinant SaCas9 protein into RNP complex and nucleofected into primary DM1 patient myoblasts. Nucleofected myoblasts were treated with either DMSO (vehicle) or 3 μM of Compound 6 (DNA-PKi) for 48 hrs. 72 hrs post nucleofection, myoblasts were subjected to either genomic DNA isolation or RNA foci staining.
One upstream and one downstream loss-of-signal droplet digital PCR (ddPCR) assays were used to determine the efficiency of CTG repeat excision. ddPCR signals would be abolished upon excision of the CTG repeat expansion in these loss-of-signal ddPCR assays. […]

[2] = tested on: CUG RNA foci in primary DM1 patient myoblasts; experiment: DOUBLE-cut screening: FISH staining of RNA foci in primary DM1 patient myoblasts; assay type: cell-based, human; conditions: sgRNA pair RNP, 72 hrs post nucleofection; for % of CUG foci free nuclei (DNA-PKi): 3 μM Compound 6 for 48 hrs; for % of CUG foci free nuclei (Vehicle): DMSO 48 hrs
Protocol: as §1, §2
Primary myoblasts were fixed for 15 min with 4% paraformaldehyde (PFA) and washed five times with 1×PBS for 10 min each at room temperature. Before staining, cells were permeabilized with 0.5% triton X-100 in 1×PBS for 5 min at room temperature, and then washed with 30% formamide and 2× saline-sodium citrate (SSC) mixture for 10 min at room temperature. Cells were then stained with 1 ng/μL of Cy3-PNA(CAG) 5 probe (PNA Bio, F5001) diluted in 30% formamide, 2×SSC, 2 μg/mL BSA, 66 μg/mL yeast tRNA, and 2 mM vanadyl complex for 15 min at 80° C. Following probe staining, cells were then washed in 30% formamide and 2×SSC mixture for 30 min at 42° C., then washed in 30% formamide and 2×SSC mixture for 30 min at 37° C., and then washed in 1×SSC solution for 10 min at room temperature, and finally washed in 1×PBS for 10 min at room temperature. Cells were next stained with anti-MBNL1 antibody (Santa Cruz, 3A4) diluted in 1% bovine serum albumin (BSA) for overnight at 4° C., and washed twice with 1×PBS for 10 min each at room temperature. Cells were then incubated with the secondary antibody goat […] Alexa 647 (Thermo Fisher, A32728) diluted in 1% BSA for 1 hr at room temperature, and washed twice with 1×PBS for 10 min each at room temperature. Next, cells were stained with Hoechst solution (Thermo Fisher, H3569) at 0.1 mg/ml for 5 min, and washed once with 1×PBS for 5 min. PBS was aspirated and fresh 100 μl of fresh PBS was added to each well. High-throughput acquisition of images was completed with the ImageXpress Micro Confocal High-Content Imaging System (Molecular Devices). RNA foci quantifications were accomplished with a customized analysis module of the MetaXpress program (Molecular Devices).
Next, DOUBLE-cut screening was performed to assess the efficiency of paired sgRNAs-induced CTG repeat excision and RNA foci reduction. 90 SaCas9 sgRNA pairs formed by one upstream sgRNA and one downstream sgRNA were assembled with recombinant SaCas9 protein into RNP complex and nucleofected into primary DM1 patient myoblasts. […]

| Substance | % of CTG repeat excision efficiency by ddPCR (DNA-PKi) [1] [%] | % of CTG repeat excision efficiency by ddPCR (Vehicle) [1] [%] | % of CUG foci free nuclei (DNA-PKi) [2] [%] | % of CUG foci free nuclei (Vehicle) [2] [%] |
| --- | --- | --- | --- | --- |
| SaU1 + SaD2: SaCas9 sgRNA pair, SEQ ID NOs: 1 and 10 (guide 1 GCCCCGGAGTCGAAGACAGTTC; guide 2 TCGGCCAGGCTGAGGCCCTGAC; listed as DNA, chemistry not fully specified) | 54.31 | 47.82 | 84.27 | 76.74 |
| SaU1 + SaD3: SaCas9 sgRNA pair, SEQ ID NOs: 1 and 11 (guide 1 GCCCCGGAGTCGAAGACAGTTC; guide 2 CAACGATAGGTGGGGGTGCGTG; listed as DNA, chemistry not fully specified) | 52.18 | 33.47 | 81.32 | 47.32 |
| SaU1 + SaD4: SaCas9 sgRNA pair, SEQ ID NOs: 1 and 12 (guide 1 GCCCCGGAGTCGAAGACAGTTC; guide 2 ACTTTGCGAACCAACGATAGGT; listed as DNA, chemistry not fully specified) | 61.00 | 41.92 | 87.86 | 81.45 |
| SaU1 + SaD5: SaCas9 sgRNA pair, SEQ ID NOs: 1 and 13 (guide 1 GCCCCGGAGTCGAAGACAGTTC; guide 2 GGGTTTGGCAAAAGCAAATTTC; listed as DNA, chemistry not fully specified) | 53.67 | 30.65 | 82.90 | 70.23 |
| SaU1 + SaD6: SaCas9 sgRNA pair, SEQ ID NOs: 1 and 14 (guide 1 GCCCCGGAGTCGAAGACAGTTC; guide 2 CTTTTGCCAAACCCGCTTTTTC; listed as DNA, chemistry not fully specified) | 49.69 | 32.51 | 70.98 | 31.66 |
| SaU1 + SaD7: SaCas9 sgRNA pair, SEQ ID NOs: 1 and 15 (guide 1 GCCCCGGAGTCGAAGACAGTTC; guide 2 GGGGCGCGGGATCCCCGAAAAA; listed as DNA, chemistry not fully specified) | 56.69 | 34.21 | 80.16 | 49.51 |
| SaU1 + SaD10: SaCas9 sgRNA pair, SEQ ID NOs: 1 and 18 (guide 1 GCCCCGGAGTCGAAGACAGTTC; guide 2 TTGGGGGTCCTGTAGCCTGTCA; listed as DNA, chemistry not fully specified) | 61.44 | 37.72 | 84.12 | 75.91 |
| SaU1 + SaD11: SaCas9 sgRNA pair, SEQ ID NOs: 1 and 19 (guide 1 GCCCCGGAGTCGAAGACAGTTC; guide 2 CAAAACGTGGATTGGGGTTGTT; listed as DNA, chemistry not fully specified) | 52.38 | 26.52 | 74.03 | 41.32 |
| SaU1 + SaD12: SaCas9 sgRNA pair, SEQ ID NOs: 1 and 20 (guide 1 GCCCCGGAGTCGAAGACAGTTC; guide 2 TCAGTGCATCCAAAACGTGGAT; listed as DNA, chemistry not fully specified) | 63.43 | 37.77 | 84.94 | 69.78 |
| SaU1 + SaD13: SaCas9 sgRNA pair, SEQ ID NOs: 1 and 21 (guide 1 GCCCCGGAGTCGAAGACAGTTC; guide 2 CCCAACAACCCCAATCCACGTT; listed as DNA, chemistry not fully specified) | 54.59 | 25.67 | 74.44 | 35.75 |
| SaU1 + SaD15: SaCas9 sgRNA pair, SEQ ID NOs: 1 and 23 (guide 1 GCCCCGGAGTCGAAGACAGTTC; guide 2 GACAATAAATACCGAGGAATGT; listed as DNA, chemistry not fully specified) | 64.96 | 37.54 | 85.70 | 72.80 |
| SaU1 + SaD17: SaCas9 sgRNA pair, SEQ ID NOs: 1 and 25 (guide 1 GCCCCGGAGTCGAAGACAGTTC; guide 2 TTTATTCGCGAGGGTCGGGGGT; listed as DNA, chemistry not fully specified) | 53.66 | 26.29 | 75.32 | 45.51 |
| SaU7 + SaD2: SaCas9 sgRNA pair, SEQ ID NOs: 7 and 10 (guide 1 CGCGGCCGGCGAACGGGGCTCG; guide 2 TCGGCCAGGCTGAGGCCCTGAC; listed as DNA, chemistry not fully specified) |  |  | 81.28 | 70.29 |
| SaU8 + SaD2: SaCas9 sgRNA pair, SEQ ID NOs: 8 and 10 (guide 1 GGCTCGAAGGGTCCTTGTAGCC; guide 2 TCGGCCAGGCTGAGGCCCTGAC; listed as DNA, chemistry not fully specified) |  |  | 82.91 | 76.39 |
